# Reference: patent publication US9079866B2, “Flap modulators” (JANSSEN PHARMACEUTICA NV, priority 2013, dated 2015)
# Counter-ions that a name gives are not always drawn. Like-named read-outs stand apart in the source and are kept apart here.
# Key:
# [1] = test system: leukotriene pathway in human whole blood (LTB4 levels); test: Human whole blood assay (A23187-stimulated LTB4); type: cell-based; details: Homo sapiens, read-out: LTB4 IC50 1:1
# Outline: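 Compounds are pre-incubated 15 min at 37° Celsius in RPMI-diluted (1:1) heparinised whole blood before a 30 min A23187 stimulus (7 μg/mL). Plasma LTB4 is read by immunoassay kit, with IC50 calculated from a 4-parameter equation.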
# [2] = target: human FLAP (Homo sapiens (Human), UniProt P20292); test: FLAP binding assay (HTRF format)
# Outline: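 HTRF ratio read-out; two independent plates, samples in duplicate on each, values averaged across plates.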
# [3] = human whole blood diluted 1:1 in RPMI, A23187-stimulated LTB4
# [4] = human FLAP wild type, HTRF format, average of two plates, duplicates
# [5] = human whole blood diluted 1:1, A23187-stimulated
# [6] = read-out: FLAP Binding wild type HTRF Ki
# Sequence of human FLAP (P20292 whole entry): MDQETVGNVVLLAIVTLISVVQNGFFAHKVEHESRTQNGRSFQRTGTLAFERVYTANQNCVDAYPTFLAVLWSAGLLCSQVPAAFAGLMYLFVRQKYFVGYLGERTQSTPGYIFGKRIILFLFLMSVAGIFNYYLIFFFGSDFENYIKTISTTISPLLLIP
"IC50 [1, 3] [nM]","Ki [2, 4] [nM]","IC50 [1, 5] [nM]","Ki ([2]; wild type FLAP, HTRF format) [nM]",Compound,"Ki [2, 6] [nM]"
235,76,,,"NC[C@H]1CCCN1S(=O)(=O)c1ccccc1-c1ccc(-c2cnc(N)cn2)c(F)c1 (stereo in doubt) [Example 94, 5-(2′-{[2-(Aminomethyl)pyrrolidin-1-yl]sulfonyl}-3-fluorobiphenyl-4-yl)pyrazin-2-amine]",
,,3940,32.8,"CC(C)(C)NC(=O)c1cc(C(F)(F)F)ccc1-c1ccc(-c2cnc(N)nc2)c(F)c1 [Example 794, 2-[4-(2-Aminopyrimidin-5-yl)-3-fluoro-phenyl]-N-tert-butyl-5-(trifluoromethyl)benzamide]",
,,68.6,8.5,"Nc1cnc(-c2ccc(-c3ccc(C(F)(F)F)cc3C(=O)N3CCC(O)CC3)cc2F)cn1 [Example 795, [2-[4-(5-Aminopyrazin-2-yl)-3-fluoro-phenyl]-5-(trifluoromethyl)phenyl]-(4-hydroxy-1-piperidyl)methanone]",
> 1000,12,,,"Nc1cnc(-c2ccc(-c3ccccc3S(=O)(=O)NC[C@H](O)CO)cc2F)cn1 [Example 104, (S)-4′-(5-Aminopyrazin-2-yl)-N-(2,3-dihydroxypropyl)-3′-fluoro-[1,1′-biphenyl]-2-sulfonamide]",
,,556,215,"Nc1ncc(-c2ccc(-c3ccccc3Oc3nccc(C(F)(F)F)n3)cc2F)cn1 [Example 613, 5-(3-Fluoro-2′-{[4-(trifluoromethyl)pyrimidin-2-yl]oxy}biphenyl-4-yl)pyrimidin-2-amine]",
,,13,1,"Nc1cnc(-c2ccc(-c3ccc(C(F)(F)F)cc3Oc3nccc(N)n3)cc2F)cn1 [Example 556, 2-{[4′-(5-Aminopyrazin-2-yl)-3′-fluoro-4-(trifluoromethyl)biphenyl-2-yl]oxy}pyrimidin-4-amine]",
29,3,,,"Nc1ncc(-c2ccc(-c3ccc(C(F)(F)F)cc3S(=O)(=O)NCCO)cc2F)cn1 [Example 326, 4′-(2-Aminopyrimidin-5-yl)-3′-fluoro-N-(2-hydroxyethyl)-4-(trifluoromethyl)biphenyl-2-sulfonamide]",
,,21.6,1.6,"Nc1cnc(-c2ccc(-c3ccccc3Sc3ccncn3)cc2F)cn1 [Example 743, 5-(3-Fluoro-2′-(pyrimidin-4-ylthio)-[1,1′-biphenyl]-4-yl)pyrazin-2-amine]",
1230,1,,,"Nc1cnc(-c2ccc(-c3ccccc3S(=O)(=O)N3CCC(O)(C(F)(F)F)CC3)cc2F)cn1 [Example 55, 1-{[4′-(5-Aminopyrazin-2-yl)-3′-fluorobiphenyl-2-yl]sulfonyl}-4-(trifluoromethyl)piperidin-4-ol]",
,,91,2,"CC(C)(C)NS(=O)(=O)c1ccccc1-c1ccc(-c2cnc(N)cn2)cc1 [Example 571, 4′-(5-Aminopyrazin-2-yl)-N-tert-butylbiphenyl-2-sulfonamide]",
103,12,,,"CC(=O)NCCNS(=O)(=O)c1ccccc1-c1ccc(-c2cnc(N)cn2)c(F)c1 [Example 155, N-[2-({[4′-(5-Aminopyrazin-2-yl)-3′-fluorobiphenyl-2-yl]sulfonyl}amino)ethyl]acetamide]",
,,226,55,"Nc1cnc(-c2ccc(-c3ccc(C(F)(F)F)cc3C(F)(F)F)cc2F)cn1 [Example 562, 5-[3-Fluoro-2′,4′-bis(trifluoromethyl)biphenyl-4-yl]pyrazin-2-amine]",
,,39,2,"Nc1cnc(-c2ccc(-c3ccc(C(F)(F)F)cc3O)cc2F)cn1 [Example 554, 4′-(5-Aminopyrazin-2-yl)-3′-fluoro-4-(trifluoromethyl)biphenyl-2-ol]",
7,3,,,"CC[C@@H](CO)NS(=O)(=O)c1ccccc1-c1ccc(-c2cnc(N)cn2)c(F)c1 [Example 153, (S)-4′-(5-Aminopyrazin-2-yl)-3′-fluoro-N-(1-hydroxybutan-2-yl)-[1,1′-biphenyl]-2-sulfonamide]",
,,563,249,"Nc1ncc(-c2ccc(-c3ccccc3Oc3ccnc(C(F)(F)F)c3)cc2F)cn1 [Example 611, 5-(3-Fluoro-2′-{[2-(trifluoromethyl)pyridin-4-yl]oxy}biphenyl-4-yl)pyrimidin-2-amine]",
111,2,,,"Nc1cnc(-c2ccc(-c3ccccc3S(=O)(=O)N3CCCCC3)cc2F)cn1 [Example 43, 5-[3-Fluoro-2′-(piperidin-1-ylsulfonyl)biphenyl-4-yl]pyrazin-2-amine]",
206,127,,,"Nc1ncc(-c2ccc(-c3ccccc3S(=O)(=O)N3CCOC(CO)C3)cc2F)cn1 (racemic) [Example 252, racemic (4-{[4′-(2-Aminopyrimidin-5-yl)-3′-fluorobiphenyl-2-yl]sulfonyl}morpholin-2-yl)methanol]",
134,8,,,"Nc1cnc(-c2ccc(-c3ccccc3CSc3nccc(N)n3)cc2F)cn1 [Example 237, 2-(((4′-(5-Aminopyrazin-2-yl)-3′-fluoro-[1,1′-biphenyl]-2-yl)methyl)thio)pyrimidin-4-amine hydrochloride]",
375,17,,,"CS(=O)(=O)Nc1ccccc1-c1ccc(-c2cnc3[nH]ccc3n2)c(F)c1 [Example 369, N-[3′-Fluoro-4′-(5H-pyrrolo[2,3-b]pyrazin-2-yl)biphenyl-2-yl]methanesulfonamide]",
36,4,,,"Nc1cnc(-c2ccc(-c3ccccc3S(=O)(=O)Nc3cccnc3)cc2F)cn1 [Example 31, 4′-(5-Aminopyrazin-2-yl)-3′-fluoro-N-pyridin-3-ylbiphenyl-2-sulfonamide]",
,,2820,60,"CC(C)(C)NS(=O)(=O)c1ccccc1-c1ccc(-c2cn3c(N)cccc3n2)c(F)c1 [Example 581, 4′-(5-Aminoimidazo[1,2-a]pyridin-2-yl)-N-tert-butyl-3′-fluorobiphenyl-2-sulfonamide]",
,,115,52.3,"C[C@H](NS(=O)(=O)c1ccccc1-c1ccc(-c2cnc(N)nc2)nc1)C(F)(F)F [Example 685, 2-[6-(2-Aminopyrimidin-5-yl)pyridin-3-yl]-N-[(1S)-2,2,2-trifluoro-1-methylethyl]benzenesulfonamide trifluoroacetic acid salt]",
33,1,,,"Nc1cnc(-c2ccc(-c3ccccc3S(=O)(=O)NC3CCCCC3)cc2F)cn1 [Example 6, 4′-(5-Aminopyrazin-2-yl)-N-cyclohexyl-3′-fluorobiphenyl-2-sulfonamide]",
,,209,13,"CC(C)(C)NS(=O)(=O)c1ccccc1-c1ccc(-c2cnc3[nH]c(=O)[nH]c3n2)c(F)c1 [Example 429, N-tert-Butyl-3′-fluoro-4′-(2-oxo-2,3-dihydro-1H-imidazo[4,5-b]pyrazin-5-yl)biphenyl-2-sulfonamide]",

Compound,"IC50 [1, 3] [nM]","Ki [2, 4] [nM]","IC50 [1, 5] [nM]","Ki ([2]; wild type FLAP, HTRF format) [nM]","Ki [2, 6] [nM]"
"Nc1ncc(-c2ccc(-c3cccnc3S(=O)(=O)C3CC3)cc2F)cn1 [Example 828, 5-{4-[2-(Cyclopropylsulfonyl)pyridin-3-yl]-2-fluorophenyl}pyrimidin-2-amine formic acid salt]",,,260,,115
"Nc1ncc(-c2ccc(-c3ccccc3S(=O)(=O)N[C@H]3CCCNC3=O)cc2F)cn1 [Example 267, 4′-(2-Aminopyrimidin-5-yl)-3′-fluoro-N-[(3S)-2-oxopiperidin-3-yl]biphenyl-2-sulfonamide trifluoroacetic acid salt]",350,,,,154
